From patent US20160320368A1, “METHOD AND APPARATUS FOR PREDICTING EFFECTIVE DOSE OR SENSITIVITY OF 5-HYDROXY-1H-IMIDAZOLE-4-CARBOXAMIDE, METHOD FOR DETERMINING AMOUNT OF XANTHOSINE MONOPHOSPHATE, AND TREATMENT AGENT AND METHOD FOR TREATING MYELODYSPLASTIC SYNDROME” (FUJIFILM Corporation, priority 2014, published 2016)

How the values were obtained:
[1] = system: human myeloid leukemia cell line SKM-1; experiment: Cell growth inhibitory activity (CellTiter-Glo, 72 hours); format: cell-based; details: SKM-1, 72 hours
Protocol: (§1) A ¾ hydrate of Compound A was used as a test compound.
SKM-1 (available from National Institute of Biomedical Innovation JCRB Cell Bank) was used as a human myeloid leukemia cell line.
90 μL (5000 cells) of the human myeloid leukemia cell line SKM-1 was seeded onto a 96-well plate. 10 μL of a PBS solution of the test compound (0 μmol/L, 1 μmol/L, 3 μmol/L, 10 μmol/L, 30 μmol/L, 100 μmol/L, 300 μmol/L, 1000 μmol/L, 3000 μmol/L, or 10000 μmol/L in terms of Compound A) was added to the plate which was then incubated in 5% CO2 at 37° C. for 72 hours. 100 μL of CellTiter-Glo (manufactured by Promega) was added to each well to prepare a cell lysate.
The relative value of chemiluminescence intensity was calculated by a plate reader.

[2] = PK test of Compound A, single oral administration, plasma concentration; format: in vivo, female mice (BALB/cAJcl); details: from 10 mg/kg up to 80 mg/kg
Protocol: Non-fasting female mice (BALB/cAJcl) were given a single oral administration of the test compound (10 mg/kg, 40 mg/kg, 80 mg/kg and 160 mg/kg in terms of Compound A).
V1/F, K01, K10, K12 and K21, pharmacokinetic parameters of the two-compartment model, were calculated from the plasma concentration course of Compound A when Compound A was given as a single oral administration. These parameters were used to predict the plasma concentration course of Compound A upon repeated administration in a variety of dosage regimen. […] The parameter of 160 mg/kg was used to carry out the prediction for 120 mg/kg and 240 mg/kg. […] PK parameters (Cmax, Time above IC50 and AUC0-48) were plotted on the X axis, and the inhibition rate of tumor volume was plotted on the Y axis.

XMP in blood cells = XMP in blood cells of mice after oral administration; format: in vivo, female mice (BALB/cAJcl); details: 100 mg/kg oral, non-treated = 100%
Protocol: as §1
(§2) 0.5% MC or 0.5% MC of the test compound (100 mg/kg in terms of Compound A) was orally administered to female mice (BALB/cAJcl).
Whole blood was collected from the postcava of animals under anesthesia by isoflurane inhalation at 1, 4, 8 or 24 hours post-dose, using a polypropylene syringe treated with an ethylenediaminetetraacetic acid disodium salt and a 25 gauge injection needle. BD Pharm Lyse (555899, manufactured by Becton, Dickinson and Company, Inc.) was added to the blood (2 mL of BD Pharm Lyse was added relative to 0.2 mL of blood). After stirring with a vortex mixer, the reaction solution was protected from light and allowed to stand at room temperature for 15 min. After centrifugation at 20° C. and 1000×g for 5 min, the supernatant was removed and suspended in 10 mL of a PBS solution. After centrifugation at 4° C. and 1000×g for 5 min, the supernatant was removed, and 1000 μL of methanol was added to each tube, followed by stirring. Thereafter, 500 μL of ultrapure water was added thereto, followed by further stirring. 600 μL of the reaction solution was divided into each of two tubes, and 400 μL of chloroform was added to each tube. The reaction solution was stirred and then centrifuged at 4° C. and 10000×g for 15 min. 400 μL of the aqueous phase was recovered and added to an ultrafiltration tube, followed by centrifugation at 12° C. and 9200×g for 2 hours. The filtrates were combined and then dried under reduced pressure at 40° C. for 2 hours by using a centrifugal evaporator. After drying, the resulting product was stored in a freezer at −80° C.
(§3) The samples obtained in (2-1) and (2-2) were returned to room temperature, and 40 μL of ultrapure water was added to the hemolysis sample and 150 μL of ultrapure water was added to the bone marrow sample. The mixture was stirred and then centrifuged at 4° C. and 21500×g for 5 min. For the hemolysis sample, 35 μL of the supernatant was transferred to a vial. For the bone marrow sample, 140 μL of the supernatant was transferred to a vial. After storage at 4° C., XMP in samples was determined in the LC-MS/MS determination instrument, LC conditions and MS/MS conditions described in Example 3 (3).
(§4) Amounts of XMP (%) were calculated assuming that amounts of XMP in a non-Compound A treated group are defined as 100%.

XMP in bone marrow cells = XMP in bone marrow cells of mice after oral administration; format: in vivo, female mice (BALB/cAJcl); details: 100 mg/kg oral, non-treated = 100%
Protocol: as §1, §2
Right and left femurs of animals were collected under anesthesia by isoflurane inhalation at 1, 4, 8 or 24 hours post-dose, followed by cutting bone ends and centrifuging at 4° C. and 3000 rpm for 1 min to recover bone marrow cells. The recovered bone marrow cells were suspended in 1 mL of PBS, and the number of cells was counted. After centrifugation at 4° C. and 1000×g for 5 min, the supernatant was removed, and 1000 μL of methanol was added to each tube, followed by stirring. Thereafter, 500 μL of ultrapure water was added thereto, followed by further stirring. 600 μL of the reaction solution was divided into each of two tubes, and 400 μL of chloroform was added to each tube. The reaction solution was stirred and then centrifuged at 4° C. and 10000×g for 15 min. 400 μL of the aqueous phase was recovered and added to an ultrafiltration tube, followed by centrifugation at 12° C. and 9200×g for 2 hours. The filtrates were combined and then dried under reduced pressure at 40° C. for 2 hours by using a centrifugal evaporator. After drying, the resulting product was stored in a freezer at −80° C.
as §3, §4

IC50 [1]: 21.5 µM
IC50 ([1]; in terms of Compound A): 2.73 µg/mL
linearity of plasma pharmacokinetics [2]: linearity was recognized
SMILES: NC(=O)c1nc[nH]c1O [Compound A, 5-Hydroxy-1H-imidazole-4-carboxamide]
Amount of XMP (%) Blood cell (XMP in blood cells; 1 hr post-dose): 3.4%
Amount of XMP (%) Blood cell (XMP in blood cells; 4 hr post-dose): 7.2%
Amount of XMP (%) Blood cell (XMP in blood cells; 8 hr post-dose): 26.4%
Amount of XMP (%) Blood cell (XMP in blood cells; 24 hr post-dose): 70.7%
Amount of XMP (%) Bone marrow cell (XMP in bone marrow cells; 1 hr post-dose): 8.7%
Amount of XMP (%) Bone marrow cell (XMP in bone marrow cells; 4 hr post-dose): 16.5%
Amount of XMP (%) Bone marrow cell (XMP in bone marrow cells; 8 hr post-dose): 25.9%
Amount of XMP (%) Bone marrow cell (XMP in bone marrow cells; 24 hr post-dose): 82.7%
